Assays:
[1] = target: T1, M1 muscarinic receptor (Homo sapiens, UniProt P11229); experiment: Functional mobilization of intracellular calcium (FLIPR) in M1-CHO cells; type: cell-based; conditions: Table 4; for Emax: 100% efficacy is the maximum response obtained with the Carbachol control; for M1 Activity: modulating M1 receptor
T1 construct: expressed in transfected cells; host or cells: CHO (M1-CHO)
T1 sequence (P11229 1-460): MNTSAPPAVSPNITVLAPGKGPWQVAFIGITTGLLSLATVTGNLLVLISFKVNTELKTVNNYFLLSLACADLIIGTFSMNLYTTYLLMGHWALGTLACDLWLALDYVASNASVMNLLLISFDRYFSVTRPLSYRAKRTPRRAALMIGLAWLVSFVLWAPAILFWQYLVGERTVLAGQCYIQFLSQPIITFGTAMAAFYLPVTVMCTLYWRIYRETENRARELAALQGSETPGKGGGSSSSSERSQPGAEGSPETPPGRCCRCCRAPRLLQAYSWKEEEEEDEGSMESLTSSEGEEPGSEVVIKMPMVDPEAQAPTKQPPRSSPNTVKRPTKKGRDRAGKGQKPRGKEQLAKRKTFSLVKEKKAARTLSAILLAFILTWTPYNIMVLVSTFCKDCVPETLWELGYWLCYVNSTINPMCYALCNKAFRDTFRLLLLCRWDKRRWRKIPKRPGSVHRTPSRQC
In short: (§1)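 Measured via Fluo-3 fluorescence on a FLIPR, CHO cells with either muscarinic subtype received compound in 0.5% DMSO. Antagonism was assessed after 15 min pre-incubation followed by carbachol at each subtype's EC80; agonism from compound addition alone.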

[2] = target: T2, M4 muscarinic receptor (Homo sapiens, UniProt P08173); experiment: Functional mobilization of intracellular calcium (FLIPR) in M4-CHO cells; type: cell-based; conditions: Table 4; for Emax: 100% efficacy is the maximum response obtained with the Carbachol control; for M4 Activity: modulating M4 receptor
T2 construct: expressed in transfected cells; host or cells: CHO (M4-CHO)
T2 sequence (P08173 1-479): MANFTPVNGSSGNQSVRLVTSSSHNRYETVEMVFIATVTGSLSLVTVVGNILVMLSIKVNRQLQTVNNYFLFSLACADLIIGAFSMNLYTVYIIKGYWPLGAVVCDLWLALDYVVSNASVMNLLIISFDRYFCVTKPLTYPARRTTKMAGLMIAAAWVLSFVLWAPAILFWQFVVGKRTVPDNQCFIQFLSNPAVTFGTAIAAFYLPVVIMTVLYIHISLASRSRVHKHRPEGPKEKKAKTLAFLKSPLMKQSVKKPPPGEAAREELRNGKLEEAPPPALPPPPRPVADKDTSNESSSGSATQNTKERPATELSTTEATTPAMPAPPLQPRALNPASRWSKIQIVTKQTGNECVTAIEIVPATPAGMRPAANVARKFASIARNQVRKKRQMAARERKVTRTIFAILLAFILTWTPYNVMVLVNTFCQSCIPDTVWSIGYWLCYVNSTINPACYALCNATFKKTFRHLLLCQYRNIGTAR
In short: as §1

SMILES	Emax [1] [%]	M1 Activity [1]	Emax [2] [%]	M4 Activity [2]
CC(=O)N[C@H]1CC2(CCN(C3CCN(C)CC3C)CC2)c2ccccc21 (stereo partly shown) [compound 436]	< 25	x (activity was measured to be greater than 5.0 μM)	< 25	x (activity was measured to be greater than 5.0 μM)
CC(=O)N[C@@H]1CC2(CCN(C3CCOCC3)CC2)c2ccccc21 [compound 437]	< 25	x (activity was measured to be greater than 5.0 μM)	< 25	x (activity was measured to be greater than 5.0 μM)
CN(C)C(=O)N[C@H]1CC2(CCN(C[C@@H]3C[C@H]4C=C[C@H]3C4)CC2)c2ccccc21 [compound 438]	25 to 100	xxx (activity was measured to be less than 2.0 μM)	< 25	xxx (activity was measured to be less than 2.0 μM)
CC(=O)N1CC2(CCN(C3CC4CCC(C3)N4C(=O)OCC3CC3)CC2)c2ccccc21 (stereo not shown) [compound 439]	25 to 100	xxx (activity was measured to be less than 2.0 μM)	25 to 100	xxx (activity was measured to be less than 2.0 μM)
CC(=O)N1CC2(CCN(C3CCN(C(=O)OC(C)C)CC3)CC2)c2ccccc21 [compound 440]	25 to 100	xxx (activity was measured to be less than 2.0 μM)	25 to 100	xxx (activity was measured to be less than 2.0 μM)
CC(=O)N1CC2(CCN(C3CCN(C(C)C)CC3)CC2)c2cc(F)ccc21 [compound 441]	< 25	x (activity was measured to be greater than 5.0 μM)	< 25	x (activity was measured to be greater than 5.0 μM)
COc1cc2c(cc1OC)C1(CCN(C3CCCCCC3)CC1)C[C@@H]2NC(C)=O [compound 442]	< 25	x (activity was measured to be greater than 5.0 μM)	< 25	x (activity was measured to be greater than 5.0 μM)
C#CCOC(=O)N1CC[C@H](CN2CCC3(CC2)CN(C(=O)N(C)C)c2ccc(F)cc23)C1 [compound 443]	> 100	xxx (activity was measured to be less than 2.0 μM)	> 100	xxx (activity was measured to be less than 2.0 μM)
CCOC(=O)N1C2CCC1CC(N1CCC3(CC1)CN(C(C)=O)c1c(C)cccc13)C2 (stereo not shown) [compound 444]	25 to 100	xx (activity was measured to be between 2.0 μM and 5.0 μM)	25 to 100	xx (activity was measured to be between 2.0 μM and 5.0 μM)
CC#CCOC(=O)N1CC[C@H](CN2CCC3(CC2)CN(C(C)=O)c2cccc(C)c23)C1 [compound 445]	25 to 100	xxx (activity was measured to be less than 2.0 μM)	25 to 100	xxx (activity was measured to be less than 2.0 μM)
COc1ccccc1C(=O)N1CCC(N2CCC3(CC2)CN(C(=O)N(C)C)c2ccc(F)cc23)CC1 [compound 446]	25 to 100	x (activity was measured to be greater than 5.0 μM)	< 25	x (activity was measured to be greater than 5.0 μM)
CC(=O)N[C@H]1CCC2(CCN(C[C@@H]3C[C@H]4C=C[C@H]3C4)CC2)c2ccccc21 [compound 447]	25 to 100	xxx (activity was measured to be less than 2.0 μM)	25 to 100	xxx (activity was measured to be less than 2.0 μM)
O=C(N[C@H]1CC2(CCN(CC3CCCCC3)CC2)c2ccccc21)C1CCCC1 [compound 448]	< 25	x (activity was measured to be greater than 5.0 μM)	< 25	xxx (activity was measured to be less than 2.0 μM)
C1=CC2CC1CC2CN1CCC2(CCCc3ccccc32)CC1 (stereo not shown) [compound 449]	25 to 100	xx (activity was measured to be between 2.0 μM and 5.0 μM)	25 to 100	xxx (activity was measured to be less than 2.0 μM)
CCOC(=O)N1CCC(N2CCC3(CC2)CN(C(C)=O)c2cccc(C)c23)CC1 [compound 450]	25 to 100	xxx (activity was measured to be less than 2.0 μM)	< 25	x (activity was measured to be greater than 5.0 μM)
Cc1nsc(N2CC3(CCN(C4CC5CCC(C4)N5c4nc(C)ns4)CC3)c3ccccc32)n1 (stereo not shown) [compound 451]	25 to 100	xxx (activity was measured to be less than 2.0 μM)	25 to 100	xxx (activity was measured to be less than 2.0 μM)
CC(=O)N[C@H]1CCC2(CCN(CCCC3CCCCC3)CC2)c2ccccc21 [compound 452]	25 to 100	xxx (activity was measured to be less than 2.0 μM)	< 25	x (activity was measured to be greater than 5.0 μM)
C#CCOC(=O)N1CCC(N2CCC3(CC2)CN(C(C)=O)c2cccc(C)c23)CC1 [compound 453]	25 to 100	xxx (activity was measured to be less than 2.0 μM)	< 25	x (activity was measured to be greater than 5.0 μM)
CCC(=O)CCN1CCC(N2CCC3(CC2)CN(C(C)=O)c2ccc(F)cc23)CC1 [compound 454]	< 25	x (activity was measured to be greater than 5.0 μM)	< 25	x (activity was measured to be greater than 5.0 μM)
CCC#CCOC(=O)N1CC[C@H](CN2CCC3(CC2)CN(C(C)=O)c2cccc(C)c23)C1 [compound 455]	25 to 100	xxx (activity was measured to be less than 2.0 μM)	25 to 100	xxx (activity was measured to be less than 2.0 μM)
CCCC#CCOC(=O)N1CCC(N2CCC3(CC2)CN(C(=O)N(C)C)c2ccc(F)cc23)CC1 [compound 456]	25 to 100	xxx (activity was measured to be less than 2.0 μM)	25 to 100	xxx (activity was measured to be less than 2.0 μM)
CN(C)C(=O)N1CC2(CCN(C3CCN(c4ccncc4)CC3)CC2)c2cc(F)ccc21 [compound 458]	< 25	x (activity was measured to be greater than 5.0 μM)	< 25	x (activity was measured to be greater than 5.0 μM)
COCCOC(=O)N1CC[C@@H](CN2CCC3(CC2)CN(C(C)=O)c2ccccc23)C1 [compound 459]	25 to 100	x (activity was measured to be greater than 5.0 μM)	< 25	xx (activity was measured to be between 2.0 μM and 5.0 μM)
COCCN1CC2(CCN(C3CCN(C(=O)OCCF)CC3)CC2)c2cc(F)ccc21 [compound 460]	25 to 100	xxx (activity was measured to be less than 2.0 μM)	25 to 100	xxx (activity was measured to be less than 2.0 μM)
CC(=O)N1CC2(CCN(C3CCN(c4cncc(-c5ccccc5F)n4)CC3)CC2)c2ccccc21 [compound 461]	25 to 100	xx (activity was measured to be between 2.0 μM and 5.0 μM)	< 25	x (activity was measured to be greater than 5.0 μM)
CC(=O)CN1CC2(CCN(C3CC4CCC(C4)C3)CC2)c2cc(F)ccc21 (stereo not shown) [compound 462]	25 to 100	xxx (activity was measured to be less than 2.0 μM)	25 to 100	xxx (activity was measured to be less than 2.0 μM)
C[C@@H](O)CC(=O)N1CCC(N2CCC3(CC2)CN(C(=O)N(C)C)c2ccc(F)cc23)CC1 [compound 463]	25 to 100	x (activity was measured to be greater than 5.0 μM)	< 25	x (activity was measured to be greater than 5.0 μM)
CCC(=O)N1CCC(N2CCC3(CC2)CN(C(=O)N(C)C)c2ccc(F)cc23)CC1 [compound 464]	25 to 100	xx (activity was measured to be between 2.0 μM and 5.0 μM)	25 to 100	xx (activity was measured to be between 2.0 μM and 5.0 μM)

From US7786141B2 (Vertex Pharmaceuticals Incorporated, priority 2004, dated 2010)
